Laboratory results from ChEMBL document CHEMBL5212743, “Selectivity Literature for EUbOPEN Chemogenomics Library wave 3” (2023).
Blank lines part the entries; values can stand above or below the compound they belong to.

Columns and labels:
[1] = molecular target: Proto-oncogene tyrosine-protein kinase ROS (Homo sapiens) (UniProt P08922); test: Selectivity interaction (KinaseProfiler™ (Millipore)) EUB0000640a ROS1; conditions: at 1 µM
[2] = molecular target: Tyrosine-protein kinase TXK (Homo sapiens) (UniProt P42681); test: Selectivity interaction (KinaseProfiler™ (Millipore)) EUB0000640a TXK; conditions: at 1 µM
[3] = molecular target: T1, Cytoplasmic tyrosine-protein kinase BMX (Homo sapiens) (UniProt P51813); test: Selectivity interaction (KinaseProfiler™ (Millipore)) EUB0000640a BMX; conditions: at 1 µM
T1 sequence (whole entry): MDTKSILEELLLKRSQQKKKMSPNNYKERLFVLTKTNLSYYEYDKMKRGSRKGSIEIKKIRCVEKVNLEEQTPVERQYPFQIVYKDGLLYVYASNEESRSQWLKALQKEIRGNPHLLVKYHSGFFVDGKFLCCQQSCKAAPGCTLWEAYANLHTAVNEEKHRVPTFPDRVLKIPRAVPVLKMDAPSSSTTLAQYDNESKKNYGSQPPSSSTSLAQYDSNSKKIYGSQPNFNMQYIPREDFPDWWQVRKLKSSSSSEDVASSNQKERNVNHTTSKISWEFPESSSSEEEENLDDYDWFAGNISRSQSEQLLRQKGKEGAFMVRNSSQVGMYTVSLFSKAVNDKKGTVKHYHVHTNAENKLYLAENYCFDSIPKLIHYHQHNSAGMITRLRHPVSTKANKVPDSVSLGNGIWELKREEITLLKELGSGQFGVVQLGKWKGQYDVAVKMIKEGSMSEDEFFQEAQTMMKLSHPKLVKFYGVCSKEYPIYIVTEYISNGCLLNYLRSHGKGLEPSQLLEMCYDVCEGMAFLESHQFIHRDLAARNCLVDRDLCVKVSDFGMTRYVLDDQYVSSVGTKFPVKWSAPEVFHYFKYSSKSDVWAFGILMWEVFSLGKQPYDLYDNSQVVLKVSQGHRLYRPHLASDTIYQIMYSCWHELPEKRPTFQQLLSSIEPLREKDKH

[4] = molecular target: Activated CDC42 kinase 1 (Homo sapiens, UniProt Q07912); test: Selectivity interaction (KinaseProfiler™ (Millipore)) EUB0000640a TNK2; conditions: at 1 µM
[5] = molecular target: Growth/differentiation factor 2 (Homo sapiens) (UniProt Q9UK05); test: Selectivity interaction (Reader proteins panel (DSF assay)) EUB0000034d GDF2
Growth/differentiation factor 2 (Homo sapiens), sequence (Q9UK05 whole entry, the tested form may be a part): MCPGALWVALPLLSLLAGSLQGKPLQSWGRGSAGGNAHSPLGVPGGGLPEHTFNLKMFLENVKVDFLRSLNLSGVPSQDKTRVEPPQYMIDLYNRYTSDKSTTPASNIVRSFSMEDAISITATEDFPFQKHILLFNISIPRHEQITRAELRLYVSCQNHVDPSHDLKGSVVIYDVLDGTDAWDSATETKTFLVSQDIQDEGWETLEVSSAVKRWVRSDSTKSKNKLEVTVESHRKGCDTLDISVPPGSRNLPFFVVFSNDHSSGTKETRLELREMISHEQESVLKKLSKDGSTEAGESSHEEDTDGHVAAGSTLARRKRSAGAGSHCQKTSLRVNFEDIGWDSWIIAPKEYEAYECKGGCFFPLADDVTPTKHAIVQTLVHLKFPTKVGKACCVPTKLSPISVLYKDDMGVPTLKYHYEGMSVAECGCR

[6] = molecular target: AT-rich interactive domain-containing protein 4A (Homo sapiens) (UniProt P29374); test: Selectivity interaction (Reader proteins panel (DSF assay)) EUB0000034d ARID4A
[7] = molecular target: Peregrin (Homo sapiens) (UniProt P55201); test: Selectivity interaction (Reader proteins panel (DSF assay)) EUB0000034d BRPF1
[8] = molecular target: Polycomb protein EED (Homo sapiens) (UniProt O75530); test: Selectivity interaction (Reader proteins panel (DSF assay)) EUB0000034d EED
[9] = molecular target: Staphylococcal nuclease domain-containing protein 1 (Homo sapiens) (UniProt Q7KZF4); test: Selectivity interaction (Reader proteins panel (DSF assay)) EUB0000034d SND1
[10] = molecular target: E3 ubiquitin-protein ligase UHRF1 (Homo sapiens) (UniProt Q96T88); test: Selectivity interaction (Reader proteins panel (DSF assay)) EUB0000034d UHRF1
E3 ubiquitin-protein ligase UHRF1 (Homo sapiens), sequence (Q96T88 whole entry): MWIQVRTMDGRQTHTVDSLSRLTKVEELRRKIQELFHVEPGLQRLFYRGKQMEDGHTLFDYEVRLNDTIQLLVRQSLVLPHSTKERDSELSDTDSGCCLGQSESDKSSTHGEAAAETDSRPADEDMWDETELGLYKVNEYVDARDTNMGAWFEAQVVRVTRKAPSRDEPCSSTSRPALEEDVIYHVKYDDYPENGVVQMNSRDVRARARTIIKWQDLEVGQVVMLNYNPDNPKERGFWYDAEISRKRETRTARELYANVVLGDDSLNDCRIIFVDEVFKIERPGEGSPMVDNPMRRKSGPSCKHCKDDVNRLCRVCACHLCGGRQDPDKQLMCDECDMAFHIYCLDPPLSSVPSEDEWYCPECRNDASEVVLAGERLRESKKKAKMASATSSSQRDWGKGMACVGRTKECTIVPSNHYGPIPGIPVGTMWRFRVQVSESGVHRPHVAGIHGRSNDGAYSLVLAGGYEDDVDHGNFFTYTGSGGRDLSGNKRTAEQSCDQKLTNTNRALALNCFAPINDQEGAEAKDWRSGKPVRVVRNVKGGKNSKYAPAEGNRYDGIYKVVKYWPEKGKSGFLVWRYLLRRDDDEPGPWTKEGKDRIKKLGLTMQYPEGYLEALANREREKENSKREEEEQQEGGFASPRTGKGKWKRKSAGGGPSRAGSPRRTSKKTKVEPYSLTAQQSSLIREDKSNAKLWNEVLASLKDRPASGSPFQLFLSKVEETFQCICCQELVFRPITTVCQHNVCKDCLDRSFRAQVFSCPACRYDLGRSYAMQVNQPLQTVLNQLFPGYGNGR

[11] = molecular target: RNA-binding protein FXR1 (Homo sapiens) (UniProt P51114); test: Selectivity interaction (Reader proteins panel (DSF assay)) EUB0000034d FXR1
RNA-binding protein FXR1 (Homo sapiens), sequence (P51114 whole entry): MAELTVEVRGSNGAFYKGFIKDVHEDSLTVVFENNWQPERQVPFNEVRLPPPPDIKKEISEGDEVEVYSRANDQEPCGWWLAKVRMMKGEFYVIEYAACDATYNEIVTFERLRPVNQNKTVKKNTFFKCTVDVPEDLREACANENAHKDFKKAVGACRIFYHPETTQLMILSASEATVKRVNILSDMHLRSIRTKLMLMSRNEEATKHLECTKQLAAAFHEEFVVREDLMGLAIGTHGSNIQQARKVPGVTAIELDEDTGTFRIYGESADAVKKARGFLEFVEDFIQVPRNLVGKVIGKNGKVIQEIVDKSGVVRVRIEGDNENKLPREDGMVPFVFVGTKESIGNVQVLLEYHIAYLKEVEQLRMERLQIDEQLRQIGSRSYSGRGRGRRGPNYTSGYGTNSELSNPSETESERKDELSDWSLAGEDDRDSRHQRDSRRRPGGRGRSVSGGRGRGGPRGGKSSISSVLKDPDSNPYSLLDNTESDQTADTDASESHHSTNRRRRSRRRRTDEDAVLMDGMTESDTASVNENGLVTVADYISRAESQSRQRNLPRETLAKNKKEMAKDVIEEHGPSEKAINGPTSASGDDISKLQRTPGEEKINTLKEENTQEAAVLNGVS

[12] = molecular target: Histone-lysine N-methyltransferase SETD2 (Homo sapiens, UniProt Q9BYW2); test: Selectivity interaction (Methyltransferase panel) EUB0000034d SETD2; conditions: at 10 µM
[13] = molecular target: Tudor domain-containing protein 3 (Homo sapiens) (UniProt Q9H7E2); test: Selectivity interaction (Reader proteins panel (DSF assay)) EUB0000034d TDRD3
Tudor domain-containing protein 3 (Homo sapiens), sequence (Q9H7E2 whole entry, the tested form may be a part): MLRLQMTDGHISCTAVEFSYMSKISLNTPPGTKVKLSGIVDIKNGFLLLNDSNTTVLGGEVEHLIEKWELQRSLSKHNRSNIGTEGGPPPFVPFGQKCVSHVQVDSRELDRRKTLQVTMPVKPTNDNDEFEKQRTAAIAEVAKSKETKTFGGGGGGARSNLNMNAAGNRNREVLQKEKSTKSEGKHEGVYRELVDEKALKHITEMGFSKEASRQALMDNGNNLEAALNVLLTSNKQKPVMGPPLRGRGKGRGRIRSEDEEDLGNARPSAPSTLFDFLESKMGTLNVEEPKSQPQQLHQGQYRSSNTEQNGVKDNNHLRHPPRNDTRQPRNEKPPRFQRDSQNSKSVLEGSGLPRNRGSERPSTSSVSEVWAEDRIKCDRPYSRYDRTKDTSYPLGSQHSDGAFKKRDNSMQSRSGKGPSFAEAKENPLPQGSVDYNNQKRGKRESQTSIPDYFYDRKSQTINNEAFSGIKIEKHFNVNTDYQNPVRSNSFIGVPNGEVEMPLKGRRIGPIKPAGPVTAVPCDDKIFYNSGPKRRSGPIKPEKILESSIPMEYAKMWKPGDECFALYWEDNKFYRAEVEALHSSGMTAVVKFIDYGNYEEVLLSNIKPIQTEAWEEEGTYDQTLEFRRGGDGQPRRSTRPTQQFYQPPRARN

[14] = molecular target: WD repeat-containing protein 5 (Homo sapiens) (UniProt P61964); test: Selectivity interaction (Reader proteins panel (DSF assay)) EUB0000034d WDR5
[15] = molecular target: Tudor domain-containing protein 3 (Homo sapiens) (UniProt Q9H7E2); test: Selectivity interaction (Methyl-Lysine/Arginine panel (DSF assay)) EUB0000211b TDRD3; conditions: OICR-# does not inhibit the C/EBPa p30-Wdr5 interaction (Western Blot), PMID: #;, Selectivity Remarks In vitro, Selectivity Source Knowledge https://www.thesgc.org/chemical-probes/OICR-9429, S
[16] = molecular target: Protein arginine N-methyltransferase 3 (Homo sapiens, UniProt O60678); test: Selectivity interaction (Protein methyltransferase panel (activity assay)) EUB0000211b PRMT3
[17] = molecular target: Histone-lysine N-methyltransferase SUV39H2 (Homo sapiens, UniProt Q9H5I1); test: Selectivity interaction (Protein methyltransferase panel (activity assay)) EUB0000211b SUV39H2
[18] = molecular target: Histone-lysine N-methyltransferase EHMT2 (Homo sapiens) (UniProt Q96KQ7); test: Selectivity interaction (Protein methyltransferase panel (activity assay)) EUB0000211b EHMT2
[19] = molecular target: Histone-lysine N-methyltransferase EHMT1 (Homo sapiens) (UniProt Q9H9B1); test: Selectivity interaction (Protein methyltransferase panel (activity assay)) EUB0000211b EHMT1
[20] = molecular target: Protein arginine N-methyltransferase 1 (Homo sapiens, UniProt Q99873); test: Selectivity interaction (Protein methyltransferase panel (activity assay)) EUB0000211b PRMT1
[21] = molecular target: Histone-lysine N-methyltransferase NSD2 (Homo sapiens) (UniProt O96028); test: Selectivity interaction (Protein methyltransferase panel (activity assay)) EUB0000211b NSD2
[22] = molecular target: Histone-lysine N-methyltransferase EZH1 (Homo sapiens) (UniProt Q92800); test: Selectivity interaction (Protein methyltransferase panel (activity assay)) EUB0000211b EZH1
[23] = molecular target: Histone-lysine N-methyltransferase EZH2 (Homo sapiens, UniProt Q15910); test: Selectivity interaction (Protein methyltransferase panel (activity assay)) EUB0000211b EZH2
Histone-lysine N-methyltransferase EZH2, sequence (Q15910 whole entry, looked up): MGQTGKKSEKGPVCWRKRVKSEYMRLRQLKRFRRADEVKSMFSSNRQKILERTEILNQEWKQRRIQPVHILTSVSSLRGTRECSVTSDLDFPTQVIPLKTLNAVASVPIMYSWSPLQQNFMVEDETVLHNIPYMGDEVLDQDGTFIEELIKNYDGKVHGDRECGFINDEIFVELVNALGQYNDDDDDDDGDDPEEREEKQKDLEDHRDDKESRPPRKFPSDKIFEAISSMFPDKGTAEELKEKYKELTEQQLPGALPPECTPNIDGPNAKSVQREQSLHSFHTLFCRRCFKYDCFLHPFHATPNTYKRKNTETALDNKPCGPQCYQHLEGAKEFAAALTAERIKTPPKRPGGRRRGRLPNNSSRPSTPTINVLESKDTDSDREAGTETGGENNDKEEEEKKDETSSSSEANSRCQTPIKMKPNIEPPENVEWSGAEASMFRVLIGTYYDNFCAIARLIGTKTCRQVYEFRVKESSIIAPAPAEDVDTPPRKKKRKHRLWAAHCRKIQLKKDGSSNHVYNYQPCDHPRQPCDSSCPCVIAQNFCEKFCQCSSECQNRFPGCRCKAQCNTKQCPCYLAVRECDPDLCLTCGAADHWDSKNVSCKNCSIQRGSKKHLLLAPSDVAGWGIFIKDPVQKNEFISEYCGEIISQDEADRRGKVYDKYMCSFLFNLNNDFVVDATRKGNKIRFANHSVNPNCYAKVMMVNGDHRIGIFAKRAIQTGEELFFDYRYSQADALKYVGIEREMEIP

[24] = molecular target: Histone-lysine N-methyltransferase NSD3 (Homo sapiens) (UniProt Q9BZ95); test: Selectivity interaction (Protein methyltransferase panel (activity assay)) EUB0000211b NSD3
[25] = molecular target: Histone-lysine N-methyltransferase KMT5C (Homo sapiens, UniProt Q86Y97); test: Selectivity interaction (Protein methyltransferase panel (activity assay)) EUB0000211b SUV420H2
[26] = molecular target: Histone-lysine N-methyltransferase, H3 lysine-79 specific (Homo sapiens, UniProt Q8TEK3); test: Selectivity interaction (Protein methyltransferase panel (activity assay)) EUB0000211b DOT1L
[27] = molecular target: Histone-lysine N-methyltransferase SETD7 (Homo sapiens) (UniProt Q8WTS6); test: Selectivity interaction (Protein methyltransferase panel (activity assay)) EUB0000211b SETD7
[28] = molecular target: Histone-lysine N-methyltransferase SETDB1 (Homo sapiens, UniProt Q15047); test: Selectivity interaction (Protein methyltransferase panel (activity assay)) EUB0000211b SETDB1
[29] = molecular target: Histone-lysine N-methyltransferase KMT5B (Homo sapiens, UniProt Q4FZB7); test: Selectivity interaction (Protein methyltransferase panel (activity assay)) EUB0000211b SUV420H1
[30] = molecular target: N-lysine methyltransferase SMYD2 (Homo sapiens, UniProt Q9NRG4); test: Selectivity interaction (Protein methyltransferase panel (activity assay)) EUB0000211b SMYD2
N-lysine methyltransferase SMYD2, sequence (Q9NRG4 whole entry): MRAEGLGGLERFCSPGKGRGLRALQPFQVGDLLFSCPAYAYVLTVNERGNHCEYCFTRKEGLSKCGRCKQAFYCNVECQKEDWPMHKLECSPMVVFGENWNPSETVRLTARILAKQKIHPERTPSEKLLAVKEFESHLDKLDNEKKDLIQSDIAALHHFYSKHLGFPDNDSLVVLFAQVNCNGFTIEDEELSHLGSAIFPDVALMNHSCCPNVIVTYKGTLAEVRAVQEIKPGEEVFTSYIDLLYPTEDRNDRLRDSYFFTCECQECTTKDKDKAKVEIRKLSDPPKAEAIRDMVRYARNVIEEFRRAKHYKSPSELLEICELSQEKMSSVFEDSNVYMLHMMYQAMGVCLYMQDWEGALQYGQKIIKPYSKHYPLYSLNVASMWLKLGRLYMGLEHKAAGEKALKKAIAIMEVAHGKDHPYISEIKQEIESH

[31] = molecular target: Protein arginine N-methyltransferase 9 (Homo sapiens) (UniProt Q6P2P2); test: Selectivity interaction (Protein methyltransferase panel (activity assay)) EUB0000211b PRMT9
[32] = molecular target: Histone-lysine N-methyltransferase, H3 lysine-36 specific (Homo sapiens) (UniProt Q96L73); test: Selectivity interaction (Protein methyltransferase panel (activity assay)) EUB0000211b NSD1
[33] = molecular target: DNA (cytosine-5)-methyltransferase 1 (Homo sapiens, UniProt P26358); test: Selectivity interaction (Protein methyltransferase panel (activity assay)) EUB0000211b DNMT1
[34] = molecular target: N-lysine methyltransferase KMT5A (Homo sapiens) (UniProt Q9NQR1); test: Selectivity interaction (Protein methyltransferase panel (activity assay)) EUB0000211b SETD8
N-lysine methyltransferase KMT5A (Homo sapiens), sequence (Q9NQR1 whole entry): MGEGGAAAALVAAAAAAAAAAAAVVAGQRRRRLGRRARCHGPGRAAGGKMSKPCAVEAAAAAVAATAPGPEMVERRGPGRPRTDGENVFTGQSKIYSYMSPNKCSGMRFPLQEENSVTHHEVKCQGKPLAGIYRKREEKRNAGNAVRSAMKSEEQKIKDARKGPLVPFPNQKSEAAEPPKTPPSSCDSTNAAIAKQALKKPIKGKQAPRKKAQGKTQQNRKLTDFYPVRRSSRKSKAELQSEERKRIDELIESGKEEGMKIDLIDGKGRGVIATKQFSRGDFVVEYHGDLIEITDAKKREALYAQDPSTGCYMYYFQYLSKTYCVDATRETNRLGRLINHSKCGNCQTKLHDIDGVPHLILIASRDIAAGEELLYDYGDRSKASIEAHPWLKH

[35] = molecular target: Protein arginine N-methyltransferase 5 (Homo sapiens, UniProt O14744); test: Selectivity interaction (Protein methyltransferase panel (activity assay)) EUB0000211b PRMT5
Protein arginine N-methyltransferase 5, sequence (O14744 whole entry): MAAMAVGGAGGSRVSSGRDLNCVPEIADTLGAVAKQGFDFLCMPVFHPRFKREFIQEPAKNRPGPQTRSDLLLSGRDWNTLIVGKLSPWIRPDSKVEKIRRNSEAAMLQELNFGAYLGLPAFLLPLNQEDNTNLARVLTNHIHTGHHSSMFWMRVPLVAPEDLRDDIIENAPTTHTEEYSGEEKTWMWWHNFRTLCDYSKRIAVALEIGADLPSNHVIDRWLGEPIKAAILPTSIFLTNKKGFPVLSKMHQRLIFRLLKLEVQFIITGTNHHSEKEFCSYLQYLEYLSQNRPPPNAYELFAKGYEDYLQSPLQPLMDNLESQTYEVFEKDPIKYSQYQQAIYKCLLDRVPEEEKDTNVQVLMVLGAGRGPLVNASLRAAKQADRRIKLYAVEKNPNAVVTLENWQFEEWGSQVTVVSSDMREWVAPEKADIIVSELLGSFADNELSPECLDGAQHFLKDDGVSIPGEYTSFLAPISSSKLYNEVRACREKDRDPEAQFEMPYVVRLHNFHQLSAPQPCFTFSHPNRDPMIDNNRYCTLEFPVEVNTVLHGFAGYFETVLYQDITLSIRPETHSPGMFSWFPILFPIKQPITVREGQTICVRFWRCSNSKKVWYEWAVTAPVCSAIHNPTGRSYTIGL

[36] = molecular target: Protein arginine N-methyltransferase 6 (Homo sapiens, UniProt Q96LA8); test: Selectivity interaction (Protein methyltransferase panel (activity assay)) EUB0000211b PRMT6
[37] = molecular target: Protein arginine N-methyltransferase 8 (Homo sapiens, UniProt Q9NR22); test: Selectivity interaction (Protein methyltransferase panel (activity assay)) EUB0000211b PRMT8

% of control [1]: 12%
% of control [2]: 14%
% of control [3]: 15%
% of control [4]: 10%
SMILES: C[C@@H]1CCc2ncc(F)cc2[C@H]2CCCN2c2ccn3ncc(c3n2)C(=O)N1

dTm [5]: < 2 K
dTm [6]: < 2 K
dTm [7]: < 2 K
dTm [8]: < 2 K
dTm [9]: < 2 K
dTm [10]: < 2 K
dTm [11]: < 2 K
% activity remaining [12]: 80%
dTm [13]: < 2 K
dTm [14]: < 2 K
SMILES: CC(C)Oc1ccc(-c2c[nH]cc2CN(C)CCN)cc1

dTm [15]: 1.8 K
% activity remaining [16]: > 90%
% activity remaining [17]: > 90%
% activity remaining [18]: > 90%
% activity remaining [19]: > 90%
% activity remaining [20]: > 90%
% activity remaining [21]: > 80%
% activity remaining [22]: > 90%
% activity remaining [23]: > 90%
% activity remaining [24]: > 90%
% activity remaining [25]: > 90%
% activity remaining [26]: > 90%
% activity remaining [27]: > 90%
% activity remaining [28]: > 90%
% activity remaining [29]: > 90%
% activity remaining [30]: > 90%
% activity remaining [31]: > 90%
% activity remaining [32]: > 90%
% activity remaining [33]: > 90%
% activity remaining [34]: > 90%
% activity remaining [35]: > 90%
% activity remaining [36]: > 90%
% activity remaining [37]: > 90%
SMILES: CN1CCN(c2ccc(-c3cccc(CN4CCOCC4)c3)cc2NC(=O)c2c[nH]c(=O)cc2C(F)(F)F)CC1
